From patent publication US12006294B2, “Therapeutic compounds” (REGENTS OF THE UNIVERSITY OF MINNESOTA, priority 2017, dated 2024)
Where a name gives a salt, the structure may show the parent alone. Read-outs that look alike come from different tables or passages of the source.

Tests used:
Hela Cells = assay: Cellular ER stress model (tunicamycin, WST-8 cell viability); conditions: for AntiERStress (% Cell Survival): HeLa cells, tunicamycin 48 hours, WST-8; for % Cell Survival Cmpd(2.5 μM) + Tuni: compound 2.5 μM + tunicamycin, WST-8 viability 48 hours after tunicamycin treatment
CAD5 cells = type: cell-based
[1] = Homo sapiens, HeLa, 48 h, read-out: % Cell Survival Cmpd(2.5 μM) + Tuni, Hela cells, compound 2.5 μM + tunicamycin, WST-8 viability 48 hours after tunicamycin treatment
[2] = Homo sapiens, HeLa, 48 h, read-out: Compounds ERS (vs Tn), ERS activity vs Tuni = % cell survival (compound)/% cell survival (tunicamycin), compound 2.5 μM

| SMILES | AntiERStress (% Cell Survival) (Hela Cells) | 1/Elispot (CAD5 cells) | AntiPrion (Number of Cells × 10^4) (CAD5 cells) | EliSpot (Spots/10000 Cells) (CAD5 cells) | Elispot (vs PC) (CAD5 cells) | viability at 2.5 µM (Hela Cells; [1]) [%] | viability at 2.5 µM (Hela Cells; [2]) [%] | % Cell Survival Cmpd(2.5 μM) + Tuni (Hela Cells; Hela cells) [%] | Compounds ERS (vs Tn) (Hela Cells; ERS activity vs Tuni = % cell survival (compound)/% cell survival (tunicamycin), compound 2.5 μM) | % Cell Survival Cmpd + Tuni (Hela Cells; Hela cells, Salubrinal 25 μM + tunicamycin, WST-8 48 hours) [%] | viability at 25 µM (Hela Cells; Homo sapiens, HeLa, 48 h, read-out: Compounds ERS (vs Tn), % cell survival (compound)/% cell survival (tunicamycin), Salubrinal 25 μM) [%] |
| --- | --- | --- | --- | --- | --- | --- | --- | --- | --- | --- | --- |
| N=C(N)N/N=C/c1c(Cl)cc(O)cc1Cl [BC1-167-1, (E)-2-(2,6-dichloro-4-hydroxybenzylidene)hydrazinecarboximidamide acetate] | 45.93 | 0.87 | 9 × 10^4 | 1500 | 1.15 |  |  |  |  |  |  |
| N=C(N)N/N=C\c1c(Cl)cc(O)cc1Cl [BC1-171-1] | 52.54 | 1.00 | 16 × 10^4 | 1300 | 1.00 |  |  |  |  |  |  |
| Clc1cc(Cl)cc(NC2=NCCN2)c1 [BC1-242-2, N-(3,5-dichlorophenyl)-4,5-dihydro-1H-imidazol-2-amine] | 57.56 | 1.86 | 50 × 10^4 | 700 | 0.54 |  |  |  |  |  |  |
| N=C(N)NCCc1c(Cl)cccc1Cl [BC1-252-2, 1-(2,6-dichlorophenethyl)guanidine] | 49.49 | 0.72 | 8 × 10^4 | 1800 | 1.38 |  |  |  |  |  |  |
| N=C(N)Nc1c(Cl)cccc1Cl [BC1-256-2, 1-(2,6-dichlorophenyl)guanidine] | 54.77 | 1.44 | 32 × 10^4 | 900 | 0.69 |  |  |  |  |  |  |
| C/C(=N\NC(=N)N)c1c(Cl)cccc1Cl [BC1-259-2, (E)-2-(1-(2,6-dichlorophenyl)ethylidene)hydrazinecarboximidamide] | 62.87 | 1.63 | 26 × 10^4 | 800 | 0.62 |  |  |  |  |  |  |
| Cl.NC(=O)N/N=C/c1c(Cl)cccc1Cl [BC1-262-1, (E)-2-(2,6-dichlorobenzylidene)hydrazinecarboxamide hydrochloride] | 64.7 | 1.86 | 53 × 10^4 | 700 | 0.54 |  |  |  |  |  |  |
| N=C(N)Nn1ccnc1-c1c(Cl)cccc1Cl [BC1-267-2, 1-(2-(2,6-dichlorophenyl)-1H-imidazol-1-yl)guanidine] | 64.26 | 1.00 | 18 × 10^4 | 1300 | 1.00 | 42.3 | 102 |  |  |  |  |
| N=C(N)N/N=C/c1c(Cl)ccc(Cl)c1Cl [BC1-282-1, (E)-2-(2,3,6-trichlorobenzylidene)hydrazinecarboximidamide acetate] | 101.2576 | 0.76 | 10 × 10^4 | 1700 | 1.31 | 71.6 | 172 |  |  |  |  |
| N=C(N)N/N=C/c1ccccc1 [BC1-295-1, (E)-2-benzylidenehydrazinecarboximidamide acetate] | 60.58 | 2.17 | 37 × 10^4 | 600 | 0.46 |  |  |  |  |  |  |
| N=C(N)N/N=C/c1ccccc1Br [BC1-297-1, (E)-2-(2-bromobenzylidene)hydrazinecarboximidamide acetate] | 90.49 | 0.93 | 8 × 10^4 | 1400 | 1.08 |  |  |  |  |  |  |
| Cc1ccccc1/C=N/NC(=N)N [BC2-3-1, (E)-2-(2-methylbenzylidene)hydrazinecarboximidamide acetate] | 82.07 | 1.86 | 28 × 10^4 | 700 | 0.54 |  |  |  |  |  |  |
| N=C(N)N/N=C/c1c(F)cccc1Cl [BC2-5-1, (E)-2-(2-chloro-6-fluorobenzylidene)hydrazinecarboximidamide acetate] | 104.9813 | 1.63 | 34 × 10^4 | 800 | 0.62 |  |  |  |  |  |  |
| N=C(N)N/N=C/c1cccc(Cl)c1Cl [BC2-7-1, (E)-2-(2,3-dichlorobenzylidene)hydrazinecarboximidamide acetate] | 100.0136 | 1.00 | 3 × 10^4 | 1300 | 1.00 | 66.7 | 160 |  |  |  |  |
| N=C(N)N/N=C/c1cccc(Cl)c1 [BC2-9-1, (E)-2-(3-chlorobenzylidene)hydrazinecarboximidamide acetate] | 93.32 | 1.44 | 33 × 10^4 | 900 | 0.69 |  |  |  |  |  |  |
| N=C(N)N/N=C/c1ccccc1F [BC2-11-1, (E)-2-(2-fluorobenzylidene)hydrazinecarboximidamide acetate] | 52.43 | 1.63 | 38 × 10^4 | 800 | 0.62 |  |  |  |  |  |  |
| N=C(N)N/N=C/c1ccc(Cl)cc1 [BC2-13-1, (E)-2-(4-chlorobenzylidene)hydrazinecarboximidamide acetate] | 68.97 | 0.72 | 9 × 10^4 | 1800 | 1.38 |  |  |  |  |  |  |
| N=C(N)N/N=C/c1ccc(F)cc1Cl [BC2-17-1, (E)-2-(2-chloro-4-fluorobenzylidene)hydrazinecarboximidamide acetate] | 104.8795 | 1.00 | 16 × 10^4 | 1300 | 1.00 |  |  |  |  |  |  |
| N=C(N)N/N=C/c1ccc(Cl)cc1F [BC2-19-1, (E)-2-(4-chloro-2-fluorobenzylidene)hydrazinecarboximidamide acetate] | 64.15 | 0.72 | 5 × 10^4 | 1800 | 1.38 |  |  |  |  |  |  |
| COc1cccc(Cl)c1/C=N/NC(=N)N [BC2-25-1, (E)-2-(2-chloro-6-methoxybenzylidene)hydrazinecarboximidamide acetate] | 51.7 | 1.08 | 20 × 10^4 | 1200 | 0.92 |  |  |  |  |  |  |
| N=C(N)N/N=C/c1c(Cl)cccc1C(F)(F)F [BC2-45-1, (E)-2-(2-chloro-6-(trifluoromethyl)benzylidene)hydrazinecarboximidamide acetate] | 99.19 | 0.62 | 10 × 10^4 | 2100 | 1.62 |  |  |  |  |  |  |
| NC(=O)N/N=C/c1ccccc1Cl [JM3-223-2, (E)-2-(2-chlorobenzylidene)hydrazine-1-carboxamide hydrochloride] |  |  |  |  |  | 28 | 118 |  |  |  |  |
| NC(=O)N/N=C/c1ccccc1I [JM3-225-2, (E)-2-(2-iodobenzylidene)hydrazine-1-carboxamide hydrochloride] |  |  |  |  |  | 22.8 | 96 |  |  |  |  |
| N=C(N)NNCc1c(Cl)cccc1Cl [JM3-227-2, 2-(2,6-dichlorobenzyl)hydrazine-1-carboximidamide] |  |  |  |  |  |  |  | 27.92 |  |  |  |
| N=C(N)N/N=C/Cc1c(Cl)cccc1Cl [JM3-239-2, (E)-2-(2-(2,6-dichlorophenyl)ethylidene)hydrazine-1-carboximidamide acetate] |  |  |  |  |  | 28.1 | 119 |  |  |  |  |
| N=C1NCCCN1/N=C/c1c(Cl)cccc1Cl [JM3-255-2, (E)-1-((2,6-dichlorobenzylidene)amino)tetrahydropyrimidin-2(1H)-imine hydrobromide] |  |  |  |  |  | 24.5 | 104 |  |  |  |  |
| CN(/N=C/c1c(Cl)cccc1Cl)C(=N)N [JM3-257-2, (E)-2-(2,6-dichlorobenzylidene)-1-methylhydrazine-1-carboximidamide hydroiodide] |  |  |  |  |  | 31.2 | 132 |  |  |  |  |
| CC(Oc1c(Cl)cccc1Cl)C1=NCCN1 (stereo not shown) [Lofexidine Hcl] |  |  |  |  |  | 35.4 | 107 |  |  |  |  |
| O=C(/C=C/c1ccccc1)NC(NC(=S)Nc1ccc(Cl)cc1)C(Cl)(Cl)Cl (stereo not shown) [Sal003] |  |  |  |  |  |  |  | 33.17 | 1.03 |  |  |
| O=C(/C=C/c1ccccc1)NC(NC(=S)Nc1cccc2cccnc12)C(Cl)(Cl)Cl (stereo not shown) [Salubrinal, reference compound] |  |  |  |  |  | 23.8 | 103 |  |  | 38.46 | 116 |
